Results taken from patent US10149473B2, “Aminoindanes amides having a high fungicidal activity and their phytosanitary compositions” (STITCHING I-F PRODUCT COLLABORATION, priority 2010, dated 2018).

Experiments:
Erysiphe graminis = test: Fungicidal activity in preventive application (5 days) against Erysiphe graminis on wheat; type: in vivo, Erysiphe graminis on wheat (Salgemma variety); conditions: 125 ppm, leaf spray, infection 5 days after treatment, evaluation after 12 days, percentage scale 100 = healthy plant, 0 = completely infected plant; for Activity NT (parts which had developed during the test): non-treated parts (NT)
Description: Determination of the Fungicidal Activity in Preventive Application (5 Days) Against Erysiphe graminis on Wheat.
(§1) Leaves of wheat plants of the Salgemma variety, grown in pots in a conditioned environment kept at 20° C. and 70% of relative humidity (R.H.), were treated by spraying on both sides of the leaves with the compounds under examination, dispersed in hydroacetonic solutions at 20% by volume of acetone.
After remaining 5 days in a conditioned environment, the plants were infected under dry conditions by shaking over them, in order to distribute the inoculum, plants previously infected by Erysiphe graminis.
The plants were then maintained in the same cell, in a humidity-saturated environment and at a temperature ranging from 18 to 24° C. for 12 days.
At the end of this period, the external symptoms of the pathogen appeared and it was therefore possible to proceed with the evaluation of the intensity of the infection, on both the parts treated directly with the products (T), and also on the parts which had developed during the test (NT), by means of a visible percentage evaluation scale of the area of affected leafs; the scale comprises, as extremes, the value 100 (healthy plant) and the value 0 (completely infected plant).

wheat plants = test: Phytotoxicity (percentage of leaf necrosis) induced on wheat plants; type: in vivo, wheat (Salgemma variety); conditions: 125 ppm on wheat, scale 0 = completely healthy plant to 100 = completely necrotized plant
Description: as §1
At the same time, the phytotoxicity was evaluated (percentage of leaf necrosis) induced on the wheat plants by the application of the products: in this case, the evaluation scale varies from 0 (completely healthy plant) to 100 (completely necrotized plant).

Row | SMILES | Activity NT (parts which had developed during the test) (Erysiphe graminis) | Activity T (parts treated directly with the products) (Erysiphe graminis) | Phytotoxicity (wheat plants)
1 | CC1CC(C)(C)c2c(F)ccc(NC(=O)c3cn(C)nc3C(F)F)c21 (stereo not drawn) [Compound N. 1, 3-difluoromethyl-N-(7-fluoro-1,1,3-trimethyl-4-indanyl)-1-methyl-4-pyrazolecarboxamide] | 90 | 95 | 0
2 | Cc1c(C(=O)Nc2ccc(F)c3c2CCC3(C)C)c(C(F)(F)F)nn1C [CR-2, 1,5-dimethyl-3-trifluoro-methyl-N-(1,1-dimethyl-7-fluoro-4-indanyl)-4-pyrazolecarboxamide] | 15 | 25 | 0
3 | CC1CC(C)(C)c2cccc(NC(=O)c3cn(C)nc3C(F)F)c21 (stereo not drawn) [CR-1, 3-difluoromethyl-1-methyl-N-(1,1,3-trimethyl-4-indanyl)-4-pyrazolecarboxamide] | 65 | 70 | 10
4 | Cc1nn(C)c(C)c1C(=O)Nc1c(F)ccc2c1CCC2(C)C [CR-3, 1,3,5-trimethyl-N-(1,1-dimethyl-5-fluoro-4-indanyl)-4-pyrazolecarboxamide] | 0 | 10 | 0
